Laboratory results from patent US10039753B2, “Imidazo[4,5-c]quinoline and imidazo[4,5-c][1,5]naphthyridine derivatives as LRRK2 inhibitors” (Pfizer Inc., priority 2015, dated 2018).
Where a name gives a salt, the structure may show the parent alone.

Experiments:
[1] = target: T1, GST-tagged truncated LRRK2 (Homo sapiens, UniProt Q5S007); experiment: LRRK2 Assay, Format 1 (Lantha Screen), WT; assay type: biochemical
T1 construct: GST-tagged truncated LRRK2 from Invitrogen (Cat # PV4874); GST; purchased Invitrogen PV4874
T1 sequence (Q5S007 970-2527 limits assumed): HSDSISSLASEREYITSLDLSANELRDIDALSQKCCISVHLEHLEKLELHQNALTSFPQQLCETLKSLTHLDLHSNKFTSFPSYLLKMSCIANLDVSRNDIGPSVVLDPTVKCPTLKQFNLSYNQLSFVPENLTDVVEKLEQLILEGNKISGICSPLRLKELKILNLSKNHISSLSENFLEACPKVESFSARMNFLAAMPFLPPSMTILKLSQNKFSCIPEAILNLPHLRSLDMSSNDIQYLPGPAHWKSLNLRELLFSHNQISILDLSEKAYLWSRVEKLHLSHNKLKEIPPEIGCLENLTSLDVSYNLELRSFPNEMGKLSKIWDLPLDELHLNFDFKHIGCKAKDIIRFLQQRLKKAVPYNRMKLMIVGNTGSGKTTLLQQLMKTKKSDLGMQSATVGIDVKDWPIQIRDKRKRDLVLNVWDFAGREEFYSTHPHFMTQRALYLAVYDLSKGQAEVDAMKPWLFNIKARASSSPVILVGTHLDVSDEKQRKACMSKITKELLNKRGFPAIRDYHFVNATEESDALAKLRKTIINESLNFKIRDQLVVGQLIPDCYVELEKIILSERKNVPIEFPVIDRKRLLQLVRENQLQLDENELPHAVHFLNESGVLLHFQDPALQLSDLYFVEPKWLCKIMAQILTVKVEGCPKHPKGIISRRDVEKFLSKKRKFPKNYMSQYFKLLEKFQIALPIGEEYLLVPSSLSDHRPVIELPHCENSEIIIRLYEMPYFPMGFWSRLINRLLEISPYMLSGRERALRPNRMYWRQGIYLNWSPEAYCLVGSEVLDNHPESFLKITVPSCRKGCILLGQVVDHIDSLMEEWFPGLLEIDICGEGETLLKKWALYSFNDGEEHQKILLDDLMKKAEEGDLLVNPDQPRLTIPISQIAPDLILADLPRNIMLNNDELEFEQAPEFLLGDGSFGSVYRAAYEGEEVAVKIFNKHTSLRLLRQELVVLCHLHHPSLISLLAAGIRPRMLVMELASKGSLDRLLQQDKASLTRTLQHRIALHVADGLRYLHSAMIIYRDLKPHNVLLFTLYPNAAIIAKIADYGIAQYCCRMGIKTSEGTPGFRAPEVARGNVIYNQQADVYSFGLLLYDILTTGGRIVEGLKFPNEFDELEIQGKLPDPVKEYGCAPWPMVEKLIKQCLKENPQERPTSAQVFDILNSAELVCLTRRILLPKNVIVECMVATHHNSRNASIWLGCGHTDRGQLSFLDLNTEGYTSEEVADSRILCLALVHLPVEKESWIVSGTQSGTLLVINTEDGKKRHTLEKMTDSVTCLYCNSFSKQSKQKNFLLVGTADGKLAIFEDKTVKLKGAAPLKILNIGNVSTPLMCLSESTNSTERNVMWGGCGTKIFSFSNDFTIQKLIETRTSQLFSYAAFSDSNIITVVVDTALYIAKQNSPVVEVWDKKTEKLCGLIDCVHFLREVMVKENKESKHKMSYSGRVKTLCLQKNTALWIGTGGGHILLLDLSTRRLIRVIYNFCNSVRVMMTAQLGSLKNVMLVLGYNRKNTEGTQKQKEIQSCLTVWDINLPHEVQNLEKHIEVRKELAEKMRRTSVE
Description: LRRK2 kinase activity was measured using Lantha Screen technology from Invitrogen. GST-tagged truncated LRRK2 from Invitrogen (Cat # PV4874) was incubated with a fluorescein-labeled peptide substrate based upon ezrin/radixin/moesin (ERM), also known as LRRKtide (Invitrogen cat # PR8976A), in the presence of a dose response of compound. Upon completion, the assay was stopped and detected with a terbium labeled anti-phospho-ERM antibody (Invitrogen, cat # PR8975A). […] Aliquots (3.5 μL) of the 100% DMSO dose response were mixed with 46.5 μL water then 1 μL of this mixture was added to the 3 μL substrate mix in the 384-well plate. The kinase reaction was started with 3 μL of a working solution of LRRK2 enzyme at a concentration of 4 μg/mL. […] The reaction was allowed to progress at room temperature for two hours and then stopped with the addition of 7 μL of detection buffer (20 mM Tris pH 7.6, 0.01% NP-40, 0.02% NaN3, 6 mM EDTA with 2 nM terbium labeled anti-phospho-ERM).

mutant G2019S LRRK2 [2] = target: T2, mutant G2019S LRRK2 (Homo sapiens, UniProt Q5S007, G2019S); experiment: LRRK2 Assay, Format 1 (Lantha Screen), G2019S mutant
T2 sequence (Q5S007 970-2527 G2019S limits assumed): as the sequence (Q5S007 970-2527 limits assumed) above, with G1050S counted along it
Description: All final concentrations of substrate ATP and enzyme were the same.

mutant G2019S LRRK2 [3] = target: T2, mutant G2019S LRRK2; experiment: LRRK2 Assay, Format 2 (Lantha Screen), G2019S mutant; assay type: biochemical; design: purchased Invitrogen PV4881; settings: geometric mean of 2-4 determinations unless otherwise indicated (a: >=5; b: single determination); read-out: LRRK2, Format 2 G2019S IC50
[4] = target: T1, GST-tagged truncated LRRK2; experiment: LRRK2 Assay, Format 2 (Lantha Screen), WT; assay type: biochemical; settings: geometric mean of 2-4 determinations unless otherwise indicated (a: >=5; b: single determination)
[5] = Format 1, wild-type LRRK2, geometric mean of 2-4 determinations unless footnoted (a: ≥5 determinations; b: single determination; c: determined on trifluoroacetate salt)
[6] = 100 nM LRRKtide, 50 μM ATP, 1.7 μg/mL LRRK2 enzyme, two hours at room temperature

Compound | IC50 [1, 5] [nM] | IC50 (mutant G2019S LRRK2 [2]) [nM] | IC50 [1, 6] [nM] | IC50 (mutant G2019S LRRK2 [3]) [nM] | IC50 [4] [nM]
FC1(F)CCCCC1n1c(Cc2ccon2)nc2cnc3ccccc3c21 (stereo not shown) [Example 46, 1-(2,2-difluorocyclohexyl)-2-(1,2-oxazol-3-ylmethyl)-1H-imidazo[4,5-c]quinoline] | 186 | 90.8 |  |  | 
Cc1nc2cnc3ccc(C#N)cc3c2n1[C@H]1CC[C@@H](F)C1 [Example 20, 1-[(1S,3R)-3-fluorocyclopentyl]-2-methyl-1H-imidazo[4,5-c]quinoline-8-carbonitrile] | 195 | 174 |  |  | 
Cc1nc2cnc3ccc(C#N)cc3c2n1C1CCOCC1 [Example 14, 2-methyl-1-(tetrahydro-2H-pyran-4-yl)-1H-imidazo[4,5-c]quinoline-8-carbonitrile] | 160 | 191 |  |  | 
FC1(F)CCC(n2c(Cc3ccon3)nc3cnc4ccccc4c32)CC1 [Example 48, 1-(4,4-difluorocyclohexyl)-2-(1,2-oxazol-3-ylmethyl)-1H-imidazo[4,5-c]quinoline] | 194 | 118 |  |  | 
Cc1cn2cc(Cc3nc4cnc5ccccc5c4n3C3CCOCC3)nc2s1 [Example 31, 2-[(2-methylimidazo[2,1-b][1,3]thiazol-6-yl)methyl]-1-(tetrahydro-2H-pyran-4-yl)-1H-imidazo[4,5-c]quinoline] | 126 | 151 |  |  | 
c1ccc2oc(Cc3nc4cnc5ccccc5c4n3C3CCOCC3)nc2c1 [Example 34, 2-(1,3-benzoxazol-2-ylmethyl)-1-(tetrahydro-2H-pyran-4-yl)-1H-imidazo[4,5-c]quinoline] | 111 | 139 |  |  | 
Cc1nn2cc(Cc3nc4cnc5ccccc5c4n3C3CCOCC3)nc2s1 [Example 38, 2-[(2-methylimidazo[2,1-b][1,3,4]thiadiazol-6-yl)methyl]-1-(tetrahydro-2H-pyran-4-yl)-1H-imidazo[4,5-c]quinoline] | 36 | 41.6 |  |  | 
Cc1nc(Cc2nc3cnc4ccc(Cl)cc4c3n2C2CCOC(CC#N)C2)no1 (single isomer, unassigned; ent-2) [enantiomer of Example 135, [cis-4-{8-chloro-2-[(5-methyl-1,2,4-oxadiazol-3-yl)methyl]-1H-imidazo[4,5-c]quinolin-1-yl}tetrahydro-2H-pyran-2-yl]acetonitrile, ENT-2] |  | 1220 | 1450 |  | 
c1ccc2nn(Cc3nc4cnc5ccccc5c4n3C3CCOCC3)cc2c1 [Example 45, 2-(2H-indazol-2-ylmethyl)-1-(tetrahydro-2H-pyran-4-yl)-1H-imidazo[4,5-c]quinoline] | 61.1 | 52.9 |  |  | 
CC(C)c1cn(Cc2nc3cnc4ccccc4c3n2C2CCOCC2)nn1 [Example 44, 2-{[4-(propan-2-yl)-1H-1,2,3-triazol-1-yl]methyl}-1-(tetrahydro-2H-pyran-4-yl)-1H-imidazo[4,5-c]quinoline] | 62.5 | 72.2 |  |  | 
Cc1nc2cnc3ccc(Cl)cc3c2n1C1CCOCC1 [Example 17, 8-chloro-2-methyl-1-(tetrahydro-2H-pyran-4-yl)-1H-imidazo[4,5-c]quinoline] | 125 | 132 |  |  | 
C[C@@H]1C[C@H](n2c(C(F)(F)c3ccccn3)nc3cnc4ccc(Cl)cc4c32)CCO1 [Example 214, 8-chloro-2-[difluoro(pyridin-2-yl)methyl]-1-[(2R,4R)-2-methyltetrahydro-2H-pyran-4-yl]-1H-imidazo[4,5-c]quinoline, formate salt] |  |  |  | 9.67 | 7.67
CCC(F)(F)Cn1c(Cn2cc(C)nn2)nc2cnc3ccc(Cl)cc3c21 [Example 186, 8-chloro-1-(2,2-difluorobutyl)-2-[(4-methyl-1H-1,2,3-triazol-1-yl)methyl]-1H-imidazo[4,5-c]quinoline] |  |  |  | 16.4 | 22.5
C[C@@H]1C[C@H](n2c(Cn3cc(C(F)(F)F)nn3)nc3cnc4ccc(C#N)cc4c32)CCO1 [Example 175, 1-[(2R,4R)-2-methyltetrahydro-2H-pyran-4-yl]-2-{[4-(trifluoromethyl)-1H-1,2,3-triazol-1-yl]methyl}-1H-imidazo[4,5-c]quinoline-8-carbonitrile] |  |  |  | 12.2 | 13.4
Cc1cn(Cc2nc3cnc4ccc(C#N)cc4c3n2C2CCCC2(F)F)nn1 (single isomer, unassigned; ent-2) [Example 197, 1-(2,2-difluorocyclopentyl)-2-[(4-methyl-1H-1,2,3-triazol-1-yl)methyl]-1H-imidazo[4,5-c]quinoline-8-carbonitrile, ENT-2] |  |  |  | 18.7 | 12.7

The remaining lines, values ahead:

IC50 [1, 5] [nM] | IC50 (mutant G2019S LRRK2 [2]) [nM] | IC50 [1, 6] [nM] | IC50 (mutant G2019S LRRK2 [3]) [nM] | IC50 [4] [nM] | Compound
17.6 | 16.2 |  |  |  | Fc1ccc2ncc3nc(Cc4cn5ncsc5n4)n(C4CCOCC4)c3c2c1 [Example 82, 8-fluoro-2-(imidazo[2,1-b][1,3,4]thiadiazol-6-ylmethyl)-1-(tetrahydro-2H-pyran-4-yl)-1H-imidazo[4,5-c]quinoline, trifluoroacetate salt]
6.8 | 5.6 |  |  |  | COc1ccc(Cc2nc3cnc4ccc(Cl)cc4c3n2[C@@H]2CCO[C@H](C)C2)nc1 [Example 2, 8-Chloro-2-[(5-methoxypyridin-2-yl)methyl]-1-[(2R,4R)-2-methyltetrahydro-2H-pyran-4-yl]-1H-imidazo[4,5-c]quinoline]
16.2 | 11 |  |  |  | Cc1cnc(Cc2nc3cnc4ccc(Cl)cc4c3n2[C@@H]2CCO[C@H](C)C2)o1 [Example 92, 8-chloro-2-[(5-methyl-1,3-oxazol-2-yl)methyl]-1-[(2R,4R)-2-methyltetrahydro-2H-pyran-4-yl]-1H-imidazo[4,5-c]quinoline]
74.6 | 62.5 |  |  |  | Fc1ccc2ncc3nc(Cc4cscn4)n(C4CCOCC4)c3c2c1 [Example 77, 8-fluoro-1-(tetrahydro-2H-pyran-4-yl)-2-(1,3-thiazol-4-ylmethyl)-1H-imidazo[4,5-c]quinoline, trifluoroacetate salt]
35.1 | 11.5 |  |  |  | C[C@@H]1C[C@H](n2c(Cc3cscn3)nc3cnc4ccc(Br)cc4c32)C[C@H](C)O1 [Example 60]
8.8 | 8 |  |  |  | C[C@@H]1C[C@H](n2c(Cc3ccon3)nc3cnc4ccc(F)cc4c32)CCO1 [Example 54, 8-fluoro-1-[(2R,4R)-2-methyltetrahydro-2H-pyran-4-yl]-2-(1,2-oxazol-3-ylmethyl)-1H-imidazo[4,5-c]quinoline]
279 | 132 |  |  |  | C[C@H]1C[C@@H](n2c(Cc3cn4ncsc4n3)nc3cnc4ccc(Cl)cc4c32)CCO1 (single isomer, unassigned) [Example 64]
 | 241 | 687 |  |  | C[C@H]1C[C@@H](n2c(Cn3cncn3)nc3cnc4ccc(Cl)cc4c32)CCO1 [enantiomer of Example 65, 8-chloro-1-[(2S,4S)-2-methyltetrahydro-2H-pyran-4-yl]-2-(1H-1,2,4-triazol-1-ylmethyl)-1H-imidazo[4,5-c]quinoline]
 |  |  | 8.91 | 9.25 | Cc1nc(Cc2nc3cnc4ccc(C#N)cc4c3n2[C@@H]2CCO[C@H](C)C2)no1 [Example 123, 2-[(5-methyl-1,2,4-oxadiazol-3-yl)methyl]-1-[(2R,4R)-2-methyltetrahydro-2H-pyran-4-yl]-1H-imidazo[4,5-c]quinoline-8-carbonitrile]
 |  |  | 9.5 | 10.7 | Cc1nc(Cc2nc3cnc4ccc(C#N)cc4c3n2[C@@H]2CCO[C@H](C)C2)cs1 [Example 234, 1-[(2R,4R)-2-methyltetrahydro-2H-pyran-4-yl]-2-[(2-methyl-1,3-thiazol-4-yl)methyl]-1H-imidazo[4,5-c]quinoline-8-carbonitrile, formate salt]
 |  |  | 7.79 | 5.14 | Cc1cc(Cc2nc3cnc4ccc(C#N)cc4c3n2[C@@H]2CC[C@H](F)C2)no1 (single isomer, unassigned) [Example 97]
 |  |  | 6.19 | 4.15 | Cc1cc(Cc2nc3cnc4ccc(C#N)cc4c3n2[C@@H]2CC[C@H](F)C2)on1 (single isomer, unassigned; ent-1) [Example 118, 1-(cis-3-fluorocyclopentyl)-2-[(3-methyl-1,2-oxazol-5-yl)methyl]-1H-imidazo[4,5-c]quinoline-8-carbonitrile, ENT-1]
 |  |  | 16.8 | 15.2 | Cc1cnn(Cc2nc3cnc4ccc(F)cc4c3n2[C@@H]2CCO[C@H](C)C2)c1 [Example 198, 8-fluoro-2-[(4-methyl-1H-pyrazol-1-yl)methyl]-1-[(2R,4R)-2-methyltetrahydro-2H-pyran-4-yl]-1H-imidazo[4,5-c]quinoline]
 |  |  | 5.34 | 6.04 | C[C@@H]1C[C@H](n2c(Cc3nc4ccccc4o3)nc3cnc4ccc(C#N)cc4c32)CCO1 [Example 153, 2-(1,3-benzoxazol-2-ylmethyl)-1-[(2R,4R)-2-methyltetrahydro-2H-pyran-4-yl]-1H-imidazo[4,5-c]quinoline-8-carbonitrile, formate salt]
